Patent US20040053972A1, “Medicinal compositions having improved absorbability” (priority 2000, published 2004)

Tests used:
[1] = test system: human breast cancer cell line BT-474; test: In vitro inhibition of growth of breast cancer cell BT-474; format: cell-based; settings: 120 h, BT-474 cells, heregulin, cultured for 5 days, SRB staining
Description: In vitro Inhibition of Growth of Breast Cancer Cell BT-474
In each well of a 96-well microtiter plate, 100 μl (containing 1,000 cells) of a cell suspension of human breast cancer cell line BT-474 was seeded and incubated at 37° C. in a 5% carbon dioxide gas incubator. On the next day, 100 μl of the 2-fold serial dilution of a solution of each test compound prepared by using 250 μl of a heregulin solution, which was adjusted so as to be the final concentration of 0.8 μg/mL, was added to each well and cultured for 5 days. The solution containing the test compound was removed and the cells were washed and fixed with a 50% trichloroacetic acid solution. To the cells was added a 0.4% (W/V) solution of pigment SRB (dissolved in 1% acetic acid) to fix as well as stain the cell protein (Skehan P. et al., Journal of the National Cancer Institute Vol. 82, pp. 1107-1112, 1990). The pigment solution was removed and the remainder was washed with a 1% acetic acid solution. Then, 100 μl of an extracting solution (10 mM Tris buffer) was added thereto to extract the pigment. The optical density of the extract at the wavelength of 550 nm was measured to determine the amount of the cells in terms of the amount of the protein. The proportion of the amount of remaining protein of each treated group was determined by taking the amount of protein of the control to which no solution of a test compound was added as 100% to calculate the value of the concentration of the compound required for inhibiting the remaining cells by 50% of that of the control (IC50)

HER2 = target: T1, HER2 (Homo sapiens, UniProt P04626); test: Inhibition of phosphorylation of receptor tyrosine (HER2) in human breast cancer cells MCF-7; format: cell-based; settings: MCF-7 cells, test compound 2 hours, then heregulin 0.8 μg/mL for 5 minutes
T1 construct: amount of phosphorylation of HER2 tyrosine of the cells; endogenous in cells; host or cells: MCF-7 human breast cancer cell line
T1 sequence (P04626 23-1255): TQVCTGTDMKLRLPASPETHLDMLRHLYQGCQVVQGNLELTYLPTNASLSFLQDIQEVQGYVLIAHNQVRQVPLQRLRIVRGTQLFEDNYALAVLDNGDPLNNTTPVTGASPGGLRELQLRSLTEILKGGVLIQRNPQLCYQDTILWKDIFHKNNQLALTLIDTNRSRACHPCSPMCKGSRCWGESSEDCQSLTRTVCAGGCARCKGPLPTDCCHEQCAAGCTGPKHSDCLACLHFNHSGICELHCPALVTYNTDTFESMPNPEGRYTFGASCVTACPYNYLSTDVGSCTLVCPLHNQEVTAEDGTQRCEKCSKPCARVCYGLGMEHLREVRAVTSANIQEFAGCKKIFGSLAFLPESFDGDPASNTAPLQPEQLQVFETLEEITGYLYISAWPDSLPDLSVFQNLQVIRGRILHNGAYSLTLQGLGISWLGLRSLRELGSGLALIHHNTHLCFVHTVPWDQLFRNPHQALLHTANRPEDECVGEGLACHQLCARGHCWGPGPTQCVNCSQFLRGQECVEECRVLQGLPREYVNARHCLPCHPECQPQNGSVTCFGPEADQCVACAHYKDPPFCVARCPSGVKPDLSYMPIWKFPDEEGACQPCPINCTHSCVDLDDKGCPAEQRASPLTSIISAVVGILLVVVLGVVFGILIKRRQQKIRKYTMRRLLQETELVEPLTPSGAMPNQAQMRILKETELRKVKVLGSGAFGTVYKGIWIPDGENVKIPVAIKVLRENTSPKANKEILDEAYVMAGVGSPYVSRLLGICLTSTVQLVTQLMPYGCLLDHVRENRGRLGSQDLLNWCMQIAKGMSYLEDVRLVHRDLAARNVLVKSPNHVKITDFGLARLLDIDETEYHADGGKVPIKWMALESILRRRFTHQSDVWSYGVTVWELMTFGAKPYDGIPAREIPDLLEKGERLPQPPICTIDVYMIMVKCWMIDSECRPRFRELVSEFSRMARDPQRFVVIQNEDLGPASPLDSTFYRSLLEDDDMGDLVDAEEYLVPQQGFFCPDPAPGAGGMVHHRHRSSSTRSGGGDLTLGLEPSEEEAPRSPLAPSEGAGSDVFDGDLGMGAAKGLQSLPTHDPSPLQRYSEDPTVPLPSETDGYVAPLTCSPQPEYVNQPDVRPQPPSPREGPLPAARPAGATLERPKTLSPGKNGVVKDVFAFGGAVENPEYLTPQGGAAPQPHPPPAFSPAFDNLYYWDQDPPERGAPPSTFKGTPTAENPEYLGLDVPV
Description: Inhibition of Phosphorylation of Receptor Tyrosine in Human Breast Cancer Cells
In each well of a 24-well plate, 500 μl of the cell suspension ([…]) of human breast cancer cell line MCF-7 was seeded and incubated at 37° C. in a 5% carbon dioxide gas incubator. On the next day, 250 μl of a 4-fold serial dilution of a solution of a test compound was added to each well and, 2 hours later, 250 μl of a heregulin solution, which was adjusted so as to be the final concentration of 0.8 μg/mL, was added thereto. After 5 minutes, an extracting solution was added thereto to terminate the reaction as well as to extract a protein. The protein was fractionated by protein electrophoresis and the protein in the electrophoretic gel was transferred to a nylon filter. The filter was reacted with a phosphorylated tyrosine-specific antibody. The reaction product was fluorescence-labeled and was exposed to a photo-film. The intensity of the exposure on the photo-film was quantitated by an image-analyzing apparatus.

[2] = test system: Human breast cancer cell line BT-474; test: In vivo breast cancer inhibiting effect (BT-474 implanted in nude mice); settings: nude mice with BT-474 tumors, orally twice daily 30 mg/kg body weight for 10 days
Description: In Vivo Breast Cancer Inhibiting Effect
Human breast cancer cell line BT-474 (5,000,000 cells) were suspended in a gel-matrix solution. The suspension was subcutaneously implanted in the breast of 6-week-old female Balb/C strain nude mice (Friedman R. et al., Proceedings of the National Academy of Sciences of the U.S.A. Vol. 87, pp. 6698-6702, 1990). At the time of the implantation and seven days after the implantation, an estradiol dipropionate solution (5 mg/mL) was intramuscularly administered to the hind leg for the purpose of enhancing a take ratio of tumors. Fourteen days after the implantation, the diameters of tumors were determined. For the experiment were used 5 mice per group with similar tumor size. Each of compounds (4, 6, 14, 17, 19, 20, 23, 24 and 26) of the present invention was suspended in a 5% gum arabic solution (physiological saline) and administered orally twice daily in dose of 30 mg/kg body weight for 10 days. On the day when the administration was terminated, the diameters of tumors were measured. Tumor volume was calculated by the following equation.
Volume of tumor=longest diameter×shortest diameter×shortest diameter×½
The growth rate of tumors was calculated as the proportion of the value obtained by subtracting the initial volume from the final volume in the group to which the drug was administered, to the value obtained by subtracting the initial volume from the final volume in the control group to which a gum arabic solution was administered.

SMILES | IC50 [1] [µM] | melting point [°C] | IC50 (HER2) [µM] | Inhibition ratio (%) [2] [%]
Fc1ccc(/C=C/c2nc(COc3ccc(CCCCn4ccnn4)cc3)co2)cc1 [Reference Example B2, 1-{4-[4-({2-[(E)-2-(4-Fluorophenyl)ethenyl]-1,3-oxazol-4-yl}methoxy)phenyl]butyl}-1H-1,2,3-triazole] | < 0.05 | 124 to 125 | 1.9 | 
OCCc1nccn1CCCc1ccc(OCc2coc(/C=C/c3ccc(F)cc3F)n2)cc1 [B20, 2-[1-[3-[4-[[2-[(E)-2-(2,4-Difluorophenyl)ethenyl]-1,3-oxazol-4-yl]methoxy]phenyl]propyl]-1H-imidazol-2-yl]-1-ethanol] | < 0.05 | 94 to 96 | 1.5 | 
OCCc1nccn1CCCCc1ccc(OCc2coc(/C=C/c3ccc(Cl)cc3)n2)cc1 [B15, 2-[1-[4-[4-[[2-[(E)-2-(4-Chlorophenyl)ethenyl]-1,3-oxazol-4-yl]methoxy]phenyl]butyl]-1H-imidazol-2-yl]-1-ethanol] |  | 127 to 128 |  | 
OCC(O)Cc1nccn1CCCCc1ccc(OCc2coc(/C=C/c3ccc(C(F)(F)F)cc3)n2)cc1 (centres unmarked) [B24, 3-[1-(4-{4-[(2-{(E)-2-[4-(Trifluoromethyl)phenyl]ethenyl}-1,3-oxazol-4-yl)methoxy]phenyl}butyl)-1H-imidazol-2-yl]-1,2-propanediol] |  | 142 to 143 |  | 28
OCC(O)Cc1nccn1CCCCc1ccc(OCc2coc(/C=C/c3ccc(F)cc3F)n2)cc1 (centres unmarked) [Reference Example B26, 3-(1-{4-[4-({2-[(E)-2-(2,4-Difluorophenyl)ethenyl]-1,3-oxazol-4-yl}methoxy)phenyl]butyl}-1H-imidazol-2-yl)-1,2-propanediol] | < 0.05 |  | 0.92 | 15
CCc1ccc(/C=C/c2nc(COc3ccc(CCCCn4ccnc4CCO)cc3)co2)cc1 [B13, 2-[1-[4-[4-[[2-[(E)-2-(4-Ethylphenyl)ethenyl]-1,3-oxazol-4-yl]methoxy]phenyl]butyl]-1H-imidazol-2-yl]-1-ethanol] |  | 94 to 95 |  | 
Fc1ccc(/C=C/c2nc(COc3cccc(CCCn4ccnn4)c3)co2)c(F)c1 [B8, 1-{3-[3-({2-[(E)-2-(2,4-Difluorophenyl)ethenyl]-1,3-oxazol-4-yl}methoxy)phenyl]propyl}-1H-1,2,3-triazole] |  | 89 to 90 |  | 
Fc1ccc(/C=C/c2nc(COc3cccc(CCCn4ccnn4)c3)co2)cc1 [B3, 1-{3-[3-({2-[(E)-2-(4-Fluorophenyl)ethenyl]-1,3-oxazol-4-yl}methoxy)phenyl]propyl}-1H-1,2,3-triazole] | < 0.05 | 105 to 106 | 0.18 | 
OCC(O)Cc1nccn1CCCCc1ccc(OCc2coc(/C=C/c3c(F)cccc3F)n2)cc1 (centres unmarked) [B28, 3-[1-[4-[4-[[2-[(E)-2-(2,6-Difluorophenyl)ethenyl]-1,3-oxazol-4-yl]methoxy]phenyl]butyl]-1H-imidazol-2-yl]-1,2-propanediol] |  | 123 to 125 |  | 
OCCc1nccn1CCCCc1ccc(OCc2coc(/C=C/c3ccc(F)cc3)n2)cc1 [B14, 2-(1-{4-[4-({2-[(E)-2-(4-Fluorophenyl)ethenyl]-1,3-oxazol-4-yl}methoxy)phenyl]butyl}-1H-imidazol-2-yl)-1-ethanol] |  | 130 to 132 |  | 
FC(F)(F)c1ccc(/C=C/c2nc(COc3ccc(CCCn4ccnn4)cc3)co2)cc1 [B5, 1-(3-{4-[(2-{(E)-2-[4-(Trifluoromethyl)phenyl]ethenyl}-1,3-oxazol-4-yl)methoxy]phenyl}propyl)-1H-1,2,3-triazole] | < 0.05 | 157 to 158 |  | 
OCC(O)Cc1nccn1CCCc1cccc(OCc2coc(/C=C/c3ccc(F)cc3F)n2)c1 (centres unmarked) [B27, 3-(1-{3-[3-({2-[(E)-2-(2,4-Difluorophenyl)ethenyl]-1,3-oxazol-4-yl}methoxy)phenyl]propyl}-1H-imidazol-2-yl)-1,2-propanediol] |  | 92 to 94 |  | 
OCCc1nccn1CCCCc1ccc(OCc2coc(/C=C/c3ccc(Br)cc3)n2)cc1 [B16, 2-[1-[4-[4-[[2-[(E)-2-(4-Bromophenyl)ethenyl]-1,3-oxazol-4-yl]methoxy]phenyl]butyl]-1H-imidazol-2-yl]-1-ethanol] |  | 149 to 150 |  | 
OCC(O)Cc1nccn1CCCCc1ccc(OCc2coc(/C=C/c3ccc(F)cc3)n2)cc1 (centres unmarked) [B23, 3-(1-{4-[4-({2-[(E)-2-(4-Fluorophenyl)ethenyl]-1,3-oxazol-4-yl}methoxy)phenyl]butyl}-1H-imidazol-2-yl)-1,2-propanediol] |  | 114 to 116 |  | 27
OCC(O)Cc1nccn1CCCc1cccc(OCc2coc(/C=C/c3ccc(C(F)(F)F)cc3)n2)c1 (centres unmarked) [B25, 3-[1-(3-{3-[(2-{(E)-2-[4-(Trifluoromethyl)phenyl]ethenyl}-1,3-oxazol-4-yl)methoxy]phenyl}propyl)-1H-imidazol-2-yl]-1,2-propanediol] |  | 102 to 104 |  | 
Fc1ccc(/C=C/c2nc(COc3ccc(CCCCn4ccnn4)cc3)co2)c(F)c1 [B7, 1-{4-[4-({2-[(E)-2-(2,4-Difluorophenyl)ethenyl]-1,3-oxazol-4-yl}methoxy)phenyl]butyl}-1H-1,2,3-triazole] |  | 115 to 117 |  | 
Cc1cccc(/C=C/c2nc(COc3ccc(CCCCn4ccnc4CCO)cc3)co2)c1 [B11, 2-[1-[4-[4-[[2-[(E)-2-(3-Methylphenyl)ethenyl]-1,3-oxazol-4-yl]methoxy]phenyl]butyl]-1H-imidazol-2-yl]-1-ethanol] | < 0.05 | 109 to 111 | 1.1 | 
Cc1cccc(/C=C/c2nc(COc3ccc(CCCCn4ccnc4CC(O)CO)cc3)co2)c1 (centres unmarked) [B22, 3-(1-{4-[4-({2-[(E)-2-(3-Methylphenyl)ethenyl]-1,3-oxazol-4-yl}methoxy)phenyl]butyl}-1H-imidazol-2-yl)-1,2-propanediol] | < 0.05 | 102 to 104 | 1.9 | 
OCCc1nccn1CCCCc1ccc(OCc2coc(/C=C/c3ccc(F)cc3F)n2)cc1 [Reference Example B19, 2-[1-[4-[4-[[2-[(E)-2-(2,4-Difluorophenyl)ethenyl]-1,3-oxazol-4-yl]methoxy]phenyl]butyl]-1H-imidazol-2-yl]-1-ethanol] | 0.017 | 93 to 95 |  | 
Cc1ccc(/C=C/c2nc(COc3ccc(CCCCn4ccnc4CCO)cc3)co2)cc1 [B10, 2-[1-[4-[4-[[2-[(E)-2-(4-Methylphenyl)ethenyl]-1,3-oxazol-4-yl]methoxy]phenyl]butyl]-1H-imidazol-2-yl]-1-ethanol] |  | 108 to 109 |  | 
Cc1ccccc1/C=C/c1nc(COc2ccc(CCCCn3ccnc3CCO)cc2)co1 [B12, 2-[1-[4-[4-[[2-[(E)-2-(2-Methylphenyl)ethenyl]-1,3-oxazol-4-yl]methoxy]phenyl]butyl]-1H-imidazol-2-yl]-1-ethanol] |  | 91 to 93 |  | 
FC(F)(F)c1ccc(/C=C/c2nc(COc3cccc(CCCn4ccnn4)c3)co2)cc1 [Reference Example B6, 1-(3-{3-[(2-{(E)-2-[4-(Trifluoromethyl)phenyl]ethenyl}-1,3-oxazol-4-yl)methoxy]phenyl}propyl)-1H-1,2,3-triazole] | < 0.05 | 115 to 116 | 1.2 | 28
